Measured values reported in PMC10669426, “Exploring the Use of Hydroxytyrosol and Some of Its Esters in Food-Grade Nanoemulsions: Establishing Connection between Structure and Efficiency” (Antioxidants, 2023).

What was measured:
[1] = DPPH radical assay, EC50 values at different reaction times; type: biochemical; details: T = 25 °C
Experimental: To check if the same insignificant changes hold for HT derivatives, we further tested the point by determining the EC50 values for the different HT derivatives. A UV-Vis Powerwave XS Microplate Reader (96-well microplate, Bio-Tek Instruments, Inc., Winooski, VT, USA) was employed to monitor the loss of DPPH^● (from reaction with each AO) at T = 25.0 ± 0.1 °C. The absorbance of each well was recorded (λ = 515 nm) at 60 s intervals for a 4000 s period, Figure 3.
Each set of experiments was performed in triplicate and, in some instances, in quadruplicate, and the reported EC50 values in Table 1 (determined from data in Figure 3) are the average of these repetitions.

[2] = Shake-flask partition in binary stripped fish oil–water mixtures in the absence of emulsifier; type: physicochemical; details: binary 1:9 (v:v) fish oil:water mixture, 25 °C; for partition constant PW^O: average of four runs; for %AOO, percentage present in the oil phase / %AOW, percentage present in the aqueous phase: no emulsifier, pH 3.0 buffer
Experimental: The partition constants, PW^O, of HT and some of its esters were determined, by employing the shake-flask method, in binary stripped fish oil–water mixtures in the absence of emulsifier. Sets of four 1:9 (v:v, oil:water, total volume = 10 mL) binary mixtures, each one containing the same AO, were prepared by stirring the mixture at high speed for 1 min. HT and the C1–C3 derivatives were dissolved in the buffered aqueous solution; meanwhile, those with longer alkyl chains were dissolved in the fish oil phase. The final stoichiometric concentration of AOs was 3.5 mM in all samples. Mixtures were stirred at high speed for 2 min and then equilibrated at T = (25 ± 1) °C for at least 24 h in the dark. The resulting two phases were then divided by centrifugation. Concentrations of the AOs in each phase were estimated by interpolation in previously prepared calibration curves by employing UV-Vis (λ = 285 nm). Further details on the method have been published elsewhere.
The reported PW^O values in Table 2 are average of the four runs. The PW^O values for the more hydrophobic antioxidants are not reported because of the high uncertainty in their values, as the ratio of percentages may be susceptible to small errors in the determination of the values of the AO concentrations in the aqueous phase. In any case, PW^O values higher than 150 indicate that AOs are, essentially, water insoluble.

[3] = Chemical kinetic method (pseudophase model) with the probe 16-ArN2^+ in intact fish oil-in-water nanoemulsions; type: physicochemical; details: intact 1:9 fish oil-in-water nanoemulsions, T = 25 °C; for 10^2 kI, interfacial rate constant for the reaction between 16ArN2^+ and AO: values given as 10^2 kI
Experimental: The distribution of HT and its derivatives was determined by using a chemical kinetic method, as have been published elsewhere based on the reaction between a chemical probe (16-ArN2^+, specifically localized at the interface) and the AOs. The changes detected in the observed rate constant for this reaction (kobs) at different surfactant volume fractions (ΦI) were evaluated according to the pseudophase kinetic model developed by Romsted and Bravo-Díaz and explained in detail elsewhere.
The chemical probe 16-ArN2^+ reacts, virtually, with any antioxidant as described elsewhere and the reaction can be monitored by UV-Vis with the aid of a specially developed derivatization protocol. […] The absorbance of the resulting azo dye was monitored at λ = 572 nm once diluted with a 50:50 (v:v) BuOH:EtOH mixture. This dilution step is critical and its purpose is to obtain an optically transparent, homogeneous solution. Details of the complete procedure have been published elsewhere.
Succinctly, after initiating the reaction between 16-ArN2^+ and the antioxidants in the intact emulsion, constant volumes (200 µL) of the nanoemulsion were extracted at given time periods and rapidly added to numbered glass tubes to quench the reaction. Because the quenching reaction is much faster than the reaction between 16-ArN2^+ and the antioxidants, the absorbance of the formed azo dye is proportional to the concentration of unreacted 16-ArN2^+ so that the decrease in absorbance of the azo dye with time can be used to determine kobs. For this purpose, we fitted the experimental (absorbance, time) pairs of data to the integrated first-order rate equation by using a non-linear least squares method provided by a commercial computer program. Figure 4 illustrates the typical variations of the absorbance of the azo dye versus time as determined in the intact fish oil-in-water nanoemulsions. The solid lines are the fitting curves to the integrated and linearized first-order equations.
The relationships between kobs and the partition constants of the AOs between the oil-interfacial, PO^I, and aqueous-interfacial, PW^I, regions are given by Equations (1)–(3), and the partition constants were estimated by fitting the variations of 1/kobs, with ΦI at constant stoichiometric concentration of the antioxidant ([AOT] = 2.5 × 10^−3 M), ΦW (ΦW = 0.9) and ΦO (ΦO = 0.1) as explained in detail elsewhere.
The experimental (kobs, ΦI) pairs of data were fitted to the equations derived from the pseudophase model Equations (1)–(3), which hold for very hydrophilic (Equation (1)) and very hydrophobic (Equation (2)) antioxidants and for those of intermediate hydrophobicity (3).

[4] = Distribution and effective interfacial concentrations of AOs in fish oil nanoemulsions, calculated from partition constants; type: physicochemical; details: for order of the percentages of AOs in the interfacial region (%AOI): at any ΦI value
Description: The values of the partition constants PO^I and PW^I in Table 3 were used to estimate the distribution of the AOs in the intact nanoemulsions. Details of the calculations and the equations employed are not given here to keep focus and for the sake of clarity, but can be easily found elsewhere.
In Equation (5), nT represents the total number of moles of the antioxidant, VT the total volume of the emulsion, and ΦI is the interfacial volume fraction. To distinguish between the stoichiometric and effective concentrations, we employed square brackets, [ ], defined as molarity of total emulsion volume, and parenthesis, ( ), defined as molarity of the interfacial region, respectively. The reader must be aware that VI, is the sum of all of the interfacial volumes of all of the aggregates present in the system, and that it matches that of the total volume of the added surfactant. Emulsion droplets and other association colloids as micelles present in the system are broken and reformed at rates much faster than those of the relevant chemical reactions, allowing rapid transfer of materials between them. That is, they are in dynamic equilibrium. (5) (AOI)=nI/VI=nT(%AOI)/VI=nT/VT(%AOI)/VI/VT=[AOT](%AOI)/ΦI

[5] = Relative oxidative stability of fish oil nanoemulsions, formation of conjugated dienes (AOCS Ti-1a-64); details: for antioxidant efficiency order (time needed to reach 0.5% conjugated dienes): 1:9 fish nanoemulsions, T = 25 °C, [AOT] = 0.1 mM
Description: Accelerated tests are commonly used to assess the relative stability of emulsions because of their reproducibility. In the present work, we used the AOCS official standard method Ti-1a-64 to determine the relative antioxidant efficiency of the antioxidants under a set of standardized conditions. For this purpose, we measured the formation of conjugated dienes (CD) with time following the procedure described in detail elsewhere. […] We, however, controlled their stability visually; no phase separation was detected.
We estimated the relative oxidative stability of fish oil nanoemulsions by controlling the extent of lipid oxidation under a set of standardized conditions. For this purpose, we measured the level of oxidation on the basis of the production of conjugated dienes (CD) with time. The method, identical to the AOCS official standard method Ti-1a-64, is rather sensitive and reproducible and suitable for monitoring the early stages of lipid oxidation. Figure 12A is illustrative of a typical oxidation kinetics experiment and where one can observe a constant small increase (lag time) up to a sudden increase in the formation of conjugated dienes (CD). The relative efficiency was assessed by determining the necessary time to reach an increase in CD production of 0.5%. Further details on the experimental procedure and calculations can be found elsewhere.

EC50 ([1]; t = 5 min) [mol AO/mol DPPH^●]	EC50 ([1]; t = 15 min) [mol AO/mol DPPH^●]	EC50 ([1]; t = 30 min) [mol AO/mol DPPH^●]	EC50 ([1]; t = 60 min) [mol AO/mol DPPH^●]	partition constant PW^O [2]	%AOO, percentage present in the oil phase [2] [%]	%AOW, percentage present in the aqueous phase [2] [%]	partition constant PO^I (oil-interfacial) [3]	partition constant PW^I (aqueous-interfacial) [3]	10^2 kI, interfacial rate constant for the reaction between 16ArN2^+ and AO [3] [M^−1 s^−1]	effective interfacial concentration relative to the stoichiometric concentration ([4]; lowest surfactant fraction ΦI = 0.005, constant o/w ratio)	increase in the oxidative stability of nanoemulsion compared with the control ([5]; ΦI = 0.005) [times]	SMILES	order of the percentages of AOs in the interfacial region (%AOI) [4]	antioxidant efficiency order (time needed to reach 0.5% conjugated dienes) [5]	decrease in efficiency on an increase in ΦI of ∼8 times ([5]; increase in ΦI of ∼8 times) [times]
0.338 ± 0.005	0.296 ± 0.003	0.288 ± 0.003	0.277 ± 0.003	–	–	–	–	–	–	–	–	O=COCCc1ccc(O)c(O)c1 [C1]	–	–	–
0.345 ± 0.004	0.299 ± 0.002	0.289 ± 0.005	0.280 ± 0.003	7.8 ± 0.4	46.37	53.63	28 ± 3	229 ± 40	27.7 ± 4.7	–	–	CCC(=O)OCCc1ccc(O)c(O)c1 [C3]	%HTI < %C3I < %C16I < %C12I < %C10I < %C8I	C8 > C10 > C16 > C3 > HT >> control	–
0.295 ± 0.005	0.265 ± 0.005	0.256 ± 0.007	0.239 ± 0.003	–	–	–	22 ± 2	–	21.0 ± 0.3	about 100 times	~10	CCCCCCCC(=O)OCCc1ccc(O)c(O)c1 [C8]	%HTI < %C3I < %C16I < %C12I < %C10I < %C8I	C8 > C10 > C16 > C3 > HT >> control	~1.5
0.345 ± 0.005	0.319 ± 0.004	0.309 ± 0.011	0.294 ± 0.006	–	–	–	16 ± 2	–	25.3 ± 0.7	–	–	CCCCCCCCCCCC(=O)OCCc1ccc(O)c(O)c1 [C12]	%HTI < %C3I < %C16I < %C12I < %C10I < %C8I	–	–
0.331 ± 0.011	0.305 ± 0.006	0.302 ± 0.011	0.298 ± 0.007	–	–	–	13 ± 2	–	25.0 ± 0.8	–	–	CCCCCCCCCCCCCCCC(=O)OCCc1ccc(O)c(O)c1 [C16]	%HTI < %C3I < %C16I < %C12I < %C10I < %C8I	C8 > C10 > C16 > C3 > HT >> control	–
0.323 ± 0.005	0.287 ± 0.004	0.279 ± 0.004	0.258 ± 0.004	0.3 ± 0.1	3.01	96.99	–	71 ± 12	14.2 ± 0.1	–	–	OCCc1ccc(O)c(O)c1 [HT, Hydroxytyrosol]	%HTI < %C3I < %C16I < %C12I < %C10I < %C8I	C8 > C10 > C16 > C3 > HT >> control	–
